These results are taken from patent publication US7282507B2, “Indole derivatives as selective androgen receptor modulators (SARMS)” (Janssen Pharmaceutica N.V., priority 2004, dated 2007).

Experiment [1] relates to testosterone-enhanced ventral prostate and seminal vesicle weights. Put plainly: Ventral Prostate and Seminal Vesicle Weight in vivo Assay. Also: key: 'active' if the non weight adjusted prostate weight was ≦40 mg or the % Inhibition prostate weight, body weight adjusted was ≧40% @ 2 mg/day dosage; ID50's, if determined, of ≦15 mg/day also indicated an 'active' compound; listed herein as 'inactive' as they did not meet the specified criteria defined above. Also noted: species or system rat. Particulars: immature castrated male Sprague Dawley rats, once daily for five days, usually orally 40 mg/kg, with testosterone propionate 2 mg/kg s.c. The procedure, abridged: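 Immature castrated male Sprague Dawley rats (~50 g) were dosed once daily for five days with compound, usually orally at 40 mg/kg in cyclodextrin or methylcellulose vehicle. Testosterone propionate was co-dosed subcutaneously at 2 mg/kg. On day six, ventral prostate and seminal vesicle wet weights were measured; activity was judged on prostate weight or body-weight-adjusted % inhibition.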

In experiment [2] the target is T1, androgen receptor (AdEasy+rAR, L929 cells) (Rattus norvegicus, UniProt P15207).
T1 construct: expressed in transfected cells; host or cells: L929 cells transduced with adenovirus AdEasy+rAR
T1 sequence (P15207 1-902): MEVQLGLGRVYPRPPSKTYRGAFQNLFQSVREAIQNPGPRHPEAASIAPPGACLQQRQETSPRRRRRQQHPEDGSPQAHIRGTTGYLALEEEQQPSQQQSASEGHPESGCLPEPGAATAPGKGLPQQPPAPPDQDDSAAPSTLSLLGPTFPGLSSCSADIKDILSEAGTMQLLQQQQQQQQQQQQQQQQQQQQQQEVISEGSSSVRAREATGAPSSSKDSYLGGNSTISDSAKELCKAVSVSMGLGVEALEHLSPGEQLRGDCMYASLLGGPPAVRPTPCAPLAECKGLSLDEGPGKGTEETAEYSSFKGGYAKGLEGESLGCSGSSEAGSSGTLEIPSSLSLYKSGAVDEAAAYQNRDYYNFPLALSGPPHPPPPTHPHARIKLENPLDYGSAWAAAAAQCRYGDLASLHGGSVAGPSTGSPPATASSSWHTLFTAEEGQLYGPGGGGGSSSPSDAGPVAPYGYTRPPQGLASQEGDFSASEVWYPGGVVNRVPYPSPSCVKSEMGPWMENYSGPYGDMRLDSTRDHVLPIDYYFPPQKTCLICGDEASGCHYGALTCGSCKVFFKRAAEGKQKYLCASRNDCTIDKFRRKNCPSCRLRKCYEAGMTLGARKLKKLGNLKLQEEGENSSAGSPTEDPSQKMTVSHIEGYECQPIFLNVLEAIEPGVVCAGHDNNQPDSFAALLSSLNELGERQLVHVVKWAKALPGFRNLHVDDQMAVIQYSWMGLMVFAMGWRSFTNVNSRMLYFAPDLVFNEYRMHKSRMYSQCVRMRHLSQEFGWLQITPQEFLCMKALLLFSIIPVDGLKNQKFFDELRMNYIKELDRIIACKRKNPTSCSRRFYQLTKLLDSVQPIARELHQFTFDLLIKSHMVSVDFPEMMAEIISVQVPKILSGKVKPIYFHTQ
Nature of the experiment: L929 Androgen Receptor Functional Assay, Adenovirus Transduction. It counts as cell-based. To be noted: for inhibition at 3 µM: L929, antagonist testing with R1881, 3000 nM; for % Activity, L929 androgen receptor functional assay / EC50: agonist testing; for % Inhibition, L929 androgen receptor functional assay: antagonist testing with R1881, 3000 nM; for IC50: antagonist testing with R1881. The procedure, abridged:
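L929 cells in phenol red-free, charcoal-stripped serum medium transduced with AdEasy+rAR (moi 1:500) and exposed 48 h at 37 °C to compound alone (agonist mode) or with R1881 (antagonist mode; 2.5 nM as the 2.5× dilution).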

Molecules are shown by their SMILES. Where “and” joins values, the source holds several entries; their conditions need not be identical. Equal entries are not always repeated.

Consider `CC(O)(CCS(C)(=O)=O)c1cc2cc([N+](=O)[O-])c(C(F)(F)F)cc2[nH]1` (stereo not shown) [Compound 49], for which, in experiment [1], the “active / inactive: inhibition of testosterone-enhanced prostate weight” value (from here on “active / inactive: inhibition”) is “inactive”. Besides, the inhibition at 3 µM in experiment [2] is 8%. Besides, in experiment [2] (3000 nM), the “% Activity, L929 androgen receptor functional assay” value (from here on “% Activity”) is 2%.

`CCSCC(O)c1cc2cc([N+](=O)[O-])c(C(F)(F)F)cc2[nH]1` (stereo not shown) [Compound 158]: the “active / inactive: inhibition” value in experiment [1] is “inactive”. Further, in experiment [2], the inhibition at 3 µM was determined as 21%. Also, in experiment [2] (3000 nM, 3 µM), the “% Activity” value was 3% and 2%. The “% Inhibition, L929 androgen receptor functional assay” value (“% Inhibition” for short) in experiment [2] (3 µM) was found to be 29%.

For `CC(O)(CS(=O)(=O)c1ccc(O)cc1)c1cc2cc(Cl)c(C(F)(F)F)cc2[nH]1` (stereo not shown) [Compound 121], the inhibition at 3 µM in experiment [2] came out at 54%. The “% Activity” value in experiment [2] (3000 nM) is reported as −4%.

Regarding `CC(O)(CSc1ccc(O)cc1)c1cc2cc(Cl)c(C(F)(F)F)cc2[nH]1` (stereo not shown) [Compound 120], the inhibition at 3 µM in experiment [2] came to 44%. Moreover, the “% Activity” value in experiment [2] (3000 nM) is listed as −5%.

Turning to `COc1ccc(SCC(C)(O)c2cc3cc(Cl)c(C(F)(F)F)cc3[nH]2)cc1` (stereo not shown) [Compound 131], the “active / inactive: inhibition” value in experiment [1] is “inactive”. Also, in experiment [2], the inhibition at 3 µM is -4%. The “% Activity” value in experiment [2] (3000 nM) is given as −5%.

As to `CCSCC(C)(O)c1cc2cc([N+](=O)[O-])c(C(F)(F)F)cc2[nH]1` (single isomer, unassigned) [Compound 150], in experiment [2], the 50% effective concentration (EC50) is more than 8000 nM and the 50% inhibitory concentration (IC50) turned out to be 303 nM. Besides, the “% Activity” value in experiment [2] (@ 8000 nM) is reported as 0 @ 8000 nM %.

Consider `CCSCC(C)(O)c1cc2cc([N+](=O)[O-])c(C(F)(F)F)cc2n1S(C)(=O)=O` (stereo not shown) [Compound 141], for which, in experiment [1], the “active / inactive: inhibition” value was “inactive”. The inhibition at 3 µM in experiment [2] was determined as 42%. For the same molecule, the “% Activity” value in experiment [2] (3000 nM) came out at 0%.

Consider `COc1ccc(SCC(C)(O)c2cc3cc(Cl)c(C(F)(F)F)cc3n2S(C)(=O)=O)cc1` (racemic) [Compound 130], for which, in experiment [2] (3000 nM), the “% Activity” value is reported as −5%.

For the molecule `CSCC(C)(O)c1cc2cc([N+](=O)[O-])c(C(F)(F)F)cc2[nH]1` (single isomer, unassigned) [Compound 145], in experiment [2] (3000 nM, 3 µM), the “% Activity” value is recorded as 1%. Moreover, the “% Inhibition” value in experiment [2] (3 µM) was found to be 94%.

For the molecule `CCS(=O)(=O)CC(C)(O)c1cc2cc([N+](=O)[O-])c(C(F)(F)F)cc2[nH]1` (stereo not shown) [Compound 151], in experiment [2], the EC50 is more than 8000 nM and the IC50 was 533 nM. The “% Activity” value in experiment [2] (@ 8000 nM) was −1 @ 8000 nM %.

As to `CCSCC(C)(O)c1cc2cc([N+](=O)[O-])c(C(F)(F)F)cc2[nH]1` (single isomer, unassigned) [Compound 149], the inhibition at 3 µM in experiment [2] stood at 77%. In experiment [2] (3000 nM), the “% Activity” value was 2%.

For the molecule `CCC(O)(CS(=O)(=O)CC)c1cc2cc([N+](=O)[O-])c(C(F)(F)F)cc2[nH]1` (stereo not shown) [Compound 176], in experiment [1], the “active / inactive: inhibition” value is “active”. The inhibition at 3 µM in experiment [2] turned out to be 81%. Further, in experiment [2] (3000 nM), the “% Activity” value was determined as 3%.

For `CC(O)(C[S+]([O-])Cc1ccccc1)c1cc2cc([N+](=O)[O-])c(C(F)(F)F)cc2[nH]1` (mixture of isomers) [Compound 161], the “active / inactive: inhibition” value in experiment [1] was “inactive”. The “% Activity” value in experiment [2] (3000 nM) was 2%.

For `CCSCC(O)(CC)c1cc2cc([N+](=O)[O-])c(C(F)(F)F)cc2[nH]1` (stereo not shown) [Compound 169], the “active / inactive: inhibition” value in experiment [1] is “active”. Besides, the inhibition at 3 µM in experiment [2] was determined as 98%. Further, the “% Activity” value in experiment [2] (3000 nM) stood at 2%.

Consider `CC(O)(CSC1CCCC1)c1cc2cc([N+](=O)[O-])c(C(F)(F)F)cc2[nH]1` (stereo not shown) [Compound 173], for which the “active / inactive: inhibition” value in experiment [1] is “inactive”. For the same molecule, the inhibition at 3 µM in experiment [2] came to 40%. Also, the “% Activity” value in experiment [2] (3000 nM) was 2%.

As to `CC(O)(CS(C)(=O)=O)c1cc2cc([N+](=O)[O-])c(C(F)(F)F)cc2[nH]1` (stereo not shown) [Compound 147], the “% Activity” value in experiment [2] (3000 nM) was found to be 0%. The “% Inhibition” value in experiment [2] (3 µM) was found to be 43%.

Turning to `CC(O)(CS(C)(=O)=O)c1cc2cc([N+](=O)[O-])c(C(F)(F)F)cc2[nH]1` (stereo not shown) [Compound 140], the “active / inactive: inhibition” value in experiment [1] is recorded as “active”. For the same molecule, the “% Activity” value in experiment [2] (3000 nM) is 0%. The “% Inhibition” value in experiment [2] (3 µM) is given as 78%.

As for `CC(O)(CSCc1ccccc1)c1cc2cc([N+](=O)[O-])c(C(F)(F)F)cc2[nH]1` (stereo not shown) [Compound 160], the “active / inactive: inhibition” value in experiment [1] was “inactive”. Moreover, the inhibition at 3 µM in experiment [2] came to 76%. The “% Activity” value in experiment [2] (3000 nM) was 1%.

For the molecule `CCCSCC(C)(O)c1cc2cc([N+](=O)[O-])c(C(F)(F)F)cc2[nH]1` (stereo not shown) [Compound 168], in experiment [1], the “active / inactive: inhibition” value is “inactive”. In addition, in experiment [2], the inhibition at 3 µM turned out to be 26%. Moreover, in experiment [2] (3000 nM), the “% Activity” value amounted to 3%.

Regarding `CSCCC(C)(O)c1cc2cc([N+](=O)[O-])c(C(F)(F)F)cc2[nH]1` (stereo not shown) [Compound 47], the “active / inactive: inhibition” value in experiment [1] is “inactive”. Further, the inhibition at 3 µM in experiment [2] is 75%. The “% Activity” value in experiment [2] (3000 nM) is reported as 2%.

Regarding `CC(O)(CS(=O)(=O)c1ccc(N)cc1)c1cc2cc(Cl)c(C(F)(F)F)cc2[nH]1` (stereo not shown) [Compound 118], the “active / inactive: inhibition” value in experiment [1] is “inactive”. Moreover, in experiment [2], the inhibition at 3 µM was 63%, the EC50 is more than 8000 nM and 3070 nM corresponded to half-maximal inhibition (IC50). In experiment [2] (@ 8000 nM), the “% Activity” value is −2 @ 8000 nM %.

For `CSCC(C)(O)c1cc2cc(C#N)c(C(F)(F)F)cc2[nH]1` (stereo not shown) [Compound 136], the “active / inactive: inhibition” value in experiment [1] is listed as “active”. Besides, in experiment [2], the inhibition at 3 µM turned out to be 75%. The “% Activity” value in experiment [2] (3000 nM) is recorded as 0%.

Turning to `CC(O)(CS(C)(=O)=O)c1cc2cc([N+](=O)[O-])c(C(F)(F)F)cc2[nH]1` (stereo not shown) [Compound 148], the “% Activity” value in experiment [2] (3000 nM) is listed as 0%. The “% Inhibition” value in experiment [2] (3 µM) was determined as 77%.

`COc1ccc(S(=O)(=O)CC(C)(O)c2cc3cc(Cl)c(C(F)(F)F)cc3[nH]2)cc1` (racemic) [Compound 129]: the “active / inactive: inhibition” value in experiment [1] is “inactive”. For the same molecule, the “% Activity” value in experiment [2] (3000 nM) is recorded as −5%. Besides, the “% Inhibition” value in experiment [2] was −8%.

In the case of `CSCC(C)(O)c1cc2cc(Cl)c(C(F)(F)F)cc2[nH]1` (stereo not shown) [Compound 135], in experiment [1], the “active / inactive: inhibition” value was “inactive”. Moreover, in experiment [2], the inhibition at 3 µM came to 40%. Besides, the “% Activity” value in experiment [2] (3000 nM) was found to be 0%.

On to `CC(O)(CS(C)(=O)=O)c1cc2cc(Cl)c(C(F)(F)F)cc2[nH]1` (stereo not shown) [Compound 138], for which the “active / inactive: inhibition” value in experiment [1] is “inactive”. The inhibition at 3 µM in experiment [2] amounted to 19%. The “% Activity” value in experiment [2] (3000 nM) was 0%.

As to `CC(C)SCC(C)(O)c1cc2cc([N+](=O)[O-])c(C(F)(F)F)cc2[nH]1` (stereo not shown) [Compound 164], the “active / inactive: inhibition” value in experiment [1] was “inactive”. Also, the inhibition at 3 µM in experiment [2] was determined as 71%. For the same molecule, the “% Activity” value in experiment [2] (3000 nM) came out at 2%.

As for `CC(O)(CSc1ccc([N+](=O)[O-])cc1)c1cc2cc(Cl)c(C(F)(F)F)cc2[nH]1` (stereo not shown) [Compound 122], the inhibition at 3 µM in experiment [2] was determined as 35%. In experiment [2] (3000 nM), the “% Activity” value was found to be 10%.

Regarding `CSCC(C)(O)c1cc2cc([N+](=O)[O-])c(C(F)(F)F)cc2[nH]1` (single isomer, unassigned) [Compound 144], the inhibition at 3 µM in experiment [2] is 82%. Further, in experiment [2] (3000 nM, 3 µM), the “% Activity” value is recorded as 0%.
